Patent US10213494B2, “Treatment of synucleinopathies” (The Brigham and Women's Hospital, Inc., priority 2007, dated 2019)

Experiments:
rat αS in MES23.5 cells = assay: Sandwich ELISA of co-transfected rat αS in MES23.5 cells; type: cell-based; settings: human Cathepsin D, same paradigm
MES-syn cells = assay: MTT assay of cellular metabolism; type: cell-based, rodent; settings: CTSD cDNA 5 μg/10 cm dish; control vector 100+/−4.05%; n=6
Description: To confirm that the effect of Cathepsin D on lowering of αS in MES23.5 cells was specific and was not caused by a general decrease in cellular metabolism and integrity, the MTT and LDH assays were performed on MES-syn cells that had been co-transfected with the highest amount of Cathepsin D-encoding cDNA (5 μg/10 cm dish). Lysis of cells with 0.1% Triton-X® 100 served as a positive control, representing maximal cell death.

[1] = test system: α-synuclein protein (wild-type, human) in MES23.5 cells; assay: Sandwich ELISA of intracellular α-synuclein in MES23.5 cells co-transfected with wild-type human SNCA cDNA and lysosomal enzyme cDNA; type: cell-based; settings: for intracellular α-synuclein level, % of control levels: n=2
Description: Sera from six rabbits were raised and affinity-purified at Open Biosystems, Inc. (openbiosystems.com) against recombinant, full-length human αS. Recombinant αS had been HPLC- and MS-characterized and subjected to amino acid composition and protein concentration analyses. For ELISA, 384-well MaxiSorp plates (Nunc, Inc) were coated with 50 μl/well capturing polyclonal Ab (hSA-2) diluted in coating buffer (NaHCO3 with 0.2% NaN3, pH 9.6). Following washes with PBS/0.05% Tween-20 (PBS-T), plates were blocked for 2 hours at 37° C. in blocking buffer (1.125% fish skin gelatin; PBS-T). After 4 washes, samples were loaded and incubated at 4° C. for 12 hours. Biotinylated Syn-1 mAb (as the assaying Ab) was generated using 200 μg Sulfo-NHS-LC Biotin (Pierce), diluted in blocking buffer and added to the plate for 2 hours at 37° C. Following 4 washes, ExtrAvidin phosphatase (Sigma) diluted in blocking buffer was applied for 1 hr at 37° C. Color development was carried out by using Fast-p-Nitrophenyl Phosphate (Sigma) and monitored kinetically at OD 405 nm every 5 minutes for up to 60 minutes.
To optimize a ‘DNA: LIPOFECTAMINE® 2000’ ratio with low cell toxicity, MES23.5 cells were transfected with either 0.25, 0.5 or 1 μg αS-encoding, wild-type, human SNCA cDNA plus empty vector cDNA up to a total of 5.5 μg DNA per 10 cm dish. 24 hours after transfection, cell lysates were harvested as described above. For serial dilutions of cell lysates, blocking buffer containing 0.5% lysate from vector-transfected wells was used as diluent, which was also used to create the blank and the corresponding standard curve of recombinant human αS. Saturation kinetics were examined for identification of time point(s) where standards and sample dilutions were in the log phase.
MES cells were transfected with 0.5 μg per 10 cm dish of αS-encoding SNCA cDNA-carrying plasmid, plus 5 μg per 10 cm dish of wild-type or mutant, human GBA-encoding plasmid. The GBA variants used were wild type, N370S, D409H, L444P, E235A, and E340A. These 5 GBA mutants were created by site-directed mutagenesis, using the Quickchange® kit (Stratagene), and sequence-verified. The N370S, D409H and L444P are known to occur (in the homozygous or compound heterozygous state) in Gaucher disease in the heterozygous state in Parkinson Disease patients and/or patients with dementia with Lewy bodies. The E235A and E340A mutant GBA proteins are not known to occur in people.
24 hours after transfection, MES cells were lysed as described above and all lysates were analyzed by ELISA. […] This is in contrast to the result observed in Example 5 above. The observed discrepancy can reflect the differences in total DNA transfected in the two paradigms (FIG. 2B; FIG. 2C versus FIG. 4), thereby leading to changes in the DNA:LIPOFECTAMINE® 2000 ratio, and in the role of co-expressed prosaposin (saposin C). It is therefore conceivable that wild-type GBA can have variable effects on αS levels in these MES23.5 cells, depending on the rate of αS import into lysosomes and the composition as well as activation state of more than one lysosomal enzyme.
MES23.5 cells were transfected with 0.5 μg per 10 cm dish of an αS-encoding, wild-type, human SNCA cDNA-carrying plasmid (referred to as MES-hSNCA WT cells in the Western blot shown in FIG. 6), plus either 1.25, 2.5 or 5 μg per 10 cm dish of a human Cathepsin D-encoding CTSD cDNA plasmid, which was purchased from OriGene Technologies, Inc., and was under the control of a CMV promoter. The Cathepsin D clone was fully sequence-verified after isolation and maxiprep. Each transfection arm was balanced with empty vector DNA up to a total of 5.5 μg DNA per 10 cm dish. 24 hours after transfection, cells were lysed, and the resulting lysates were analyzed by the sandwich ELISA described herein. […]

In the case of “cathepsin D: human lysosomal aspartyl protease expressed from CTSD cDNA plasmid under a CMV promoter”, the “effect on level of co-transfected rat αS” value (rat αS in MES23.5 cells) was “able to lower the levels of co-transfected rat αS”, the MTT signal (MES-syn cells) was 101.3+/−3.91% and the “intracellular α-synuclein level, % of control levels” value ([1]; cathepsin D cDNA 1.25 μg/10 cm dish, 24 hours) was 68+/−17.7%. The “intracellular α-synuclein level, % of control levels” value ([1]; cathepsin D cDNA 2.5 μg/10 cm dish, 24 hours) was 53+/−16.8%, the “intracellular total α-synuclein level, % of control levels” value ([1]; cathepsin D cDNA 5 μg/10 cm dish, 24 hours, n=11) was 25.3+/−7.0% and the “αS-lowering effect, percent of total intracellular αS concentration detectable” value ([1]; cathepsin D co-expression) was no more than 75%.
